Experimental data published in paper doi:10.1101/2025.08.13.670122v1 (bioRxiv, 2025).

Assays:
Plasma stability = type: in vitro ADME; conditions: male Sprague-Dawley rat plasma, 6 μL of 1 mM compound (10% DMSO) in 27 μL plasma, 37°C, 0-24 h, UPLC-MS, one-phase decay, mean ± SEM of at least three experiments, read-out: Plasmatic half-life t1/2 (±SEM)
Procedure: The degradation was quenched by adding 140 μL of 1% formic acid in an acetonitrile-ethanol (1:1) solution containing 0.25 mM of N,N-dimethylbenzamide (used as an internal standard). This mixture was initially transferred to an Impact Protein Precipitation filter plate (Phenomenex, California), the filtrates from which were subsequently collected in a second 96-well UPLC plate. Both plates were centrifuged at 500 g for 10 min while maintaining a temperature of 4°C. The filtrates were then diluted with 30 μL of distilled water and processed for analysis using an Acquity UPLC-MS system class H (using an Acquity UPLC protein BEH C18 column that measured 2.1 mm × 50 mm and had 1.7 μm particles with pores 130 Å in width). The peptide half-life, derived from the degradation curve, was calculated using the exponential one-phase decay function in GraphPad Prism 9. Degradation was estimated by comparing the mass spectrum at each point with those at the zero-minute mark. The data were presented as a mean ± SEM of at least three unique experiments, each performed in singlicate.

Sprague-Dawley rats = assay: Simultaneous in vivo echocardiography and blood pressure measurements; set-up: species or system rat; conditions: intrajugular perfusion 0.96 nmol kg−1 min−1, n = 4; for Change in left ventricular ejection fraction (ΔEF) / cardiac contractility: isoflurane-anesthetized Sprague-Dawley rats; for Change in mean arterial blood pressure (ΔMABP): isoflurane-anesthetized normotensive Sprague-Dawley rats
Procedure: All ligands were administered intravenously at the same dose (0.96 nmol kg^−1 min^−1), by instrumentalizing adult Sprague-Dawley rats for simultaneous recordings of arterial blood pressure and cardiac function (Figure 5A).
Figure 5. Simultaneous in vivo cardiac ultrasound imaging and blood pressure monitoring of adult Sprague-Dawley rats following constant administration of AT1R ligands. (A) The acquisition setup for each isoflurane-anesthetized rat includes a catheter in the right femoral artery connected to a TDX300 Micro-med transducer and BPA-100c blood pressure (BP) analyzer for continuous BP measurement, while drug administration is performed via a catheter inserted in the left jugular vein and linked to an automatic syringe pump set at a flow rate of 30 µl*min^−1. […] The syringe pump is initiated at 0 s, and the catheter’s saline dead volume is flushed in approximately 180 s.
Figure 6. […] Changes in mean arterial blood pressure (ΔMABP; A), ejection fraction (ΔEF; B), left ventricular end-systolic (ΔLVES; C) and end-diastolic (ΔLVEDV; D) volumes, and stroke volume (ΔSV; E) were measured from simultaneous in vivo cardiac blood pressure monitoring and ultrasound imaging. […] The syringe pump is initiated at 0 s, and the catheter’s saline dead volume is flushed in approximately 180 s. […] Statistical analyses were performed with an unpaired standard t-test. * p < 0.05, ** p < 0.01 and ***p<0.005.
Male Sprague-Dawley rats (230–350 g, 7–9 weeks of age) were initially anesthetized with 5% isoflurane (mixed with 100% oxygen at a flow rate of 2.5 L/min). The animal was placed in a supine position on a thermostatic pad set at 37°C, and anesthesia was maintained with 2% isoflurane, confirmed by the absence of reflexes to toe pinch. The right femoral artery was cannulated with a PE 50 catheter filled with heparinized saline (10 units/mL) and connected to a Micro-Med transducer (TDX-300) and a Micro-Med blood pressure analyzer (BPA-100c). The left jugular vein was also cannulated with a PE 50 catheter filled with heparinized saline (10 units/mL) and connected to a syringe operated by an automatic pump with a flow rate of 30 µL min-1. […] Blood pressure parameters were continuously obtained throughout the experiment, and heart function parameters were simultaneously captured at various time points using a Vevo3100 echocardiography system equipped with an MX250 ultrasound probe (FUJIFILM VisualSonics). The ejection fraction was determined from a parasternal long-axis view of the left ventricle in B-mode imaging and analyzed using Vevo LAB 5.7.1 (FUJIFILM VisualSonics). Data were presented as the mean ± SEM of four different rats per group. Statistical analyses were conducted with standard analysis of variance (ANOVA) followed by Tukey’s multiple comparisons test. […]

endogenous AT1R [1] = target: T1, endogenous AT1R (Rattus norvegicus, UniProt P25095); assay: Rho BRET sensor in rat primary VSMC with endogenous AT1R; type: cell-based; conditions: adenoviral Rho BRET sensor, 1 min 30 s stimulation, mean ± SEM of at least three to five independent experiments, read-out: EC50 Rho in VSMCs
T1 construct: expressing low levels of endogenous AT1R; endogenous in cells; host or cells: rat primary VSMC, passages 13-15
T1 sequence (P25095 1-359): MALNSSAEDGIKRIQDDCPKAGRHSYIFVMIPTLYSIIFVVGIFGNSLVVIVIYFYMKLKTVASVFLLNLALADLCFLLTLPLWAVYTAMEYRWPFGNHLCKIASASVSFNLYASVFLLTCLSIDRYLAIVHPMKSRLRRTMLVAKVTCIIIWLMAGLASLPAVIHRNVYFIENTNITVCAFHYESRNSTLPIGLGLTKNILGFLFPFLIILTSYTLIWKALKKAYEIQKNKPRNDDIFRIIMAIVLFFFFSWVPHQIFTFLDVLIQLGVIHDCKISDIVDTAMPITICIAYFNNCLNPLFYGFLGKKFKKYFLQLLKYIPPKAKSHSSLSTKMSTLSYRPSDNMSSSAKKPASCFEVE
Text: (§1) We next assessed the analogs’ ability to engage Gαq by assessing either the PKC or Rho responses in rat primary vascular smooth muscle cell (VSMC) culture, expressing low levels of endogenous AT1R (between 25–50 fmol/mg) (Figure 4, Table 6).
(§2) The coding regions of the PKC-c1b sensor, PKN-RBD-RlucII, and rGFPcaax were PCR-amplified and subcloned into the KpnI/XhoI sites of the pENTR3C vector (Invitrogen), respectively. These were then transferred into the adenoviral expression vector pAd/CMV/V5-DEST (Invitrogen), via gateway cloning (pAD-CMV-PKC-c1b, pAD-CMV-PKN-RBD-RLucII, and pAD-CMV-rGFPcaax). Viruses containing the sensor codes were generated following a previously outlined process.[49] […] The following day, cells were transfected with 4 µg of PacI-digested pAd5-CMVsensors using Lipofectamine 2000 (Invitrogen). After 7–10 days post-transfection, mature virus particles were gleaned via the collection of cells and media, which then underwent multiple cycles of freezing and thawing, followed by centrifugation. The harvested virus was amplified by re-infection on 100-mm dishes of confluent HEK293A cells, and harvested 48-72 h later. Viral titers were determined by serial dilution of adenovirus stock and subsequent infection of HEK293A cells in 96-well plates. 36 h after infection, cells were stained using an anti-hexon antibody (ab8249; Abcam), and hexon-expressing cells were tallied via fluorescence microscopy. The virus was then stored at −80°C. After this, rat VSMCs (between the 13th to 15th passages) were seeded at a density of 20,000 cells in each well of white 96-well plates 24 h before transduction with the viral vector. The cells were then transduced with the PKC sensor-adenovirus (3 μL per well) or Rho sensor (1 μL each per well of PKN-RBD-RLucII-adnovirus and rGFP-caax adenovirus). After 24 h, the medium was replaced. 48 h post-viral transduction, the cells were thoroughly washed with Tyrode’s buffer. Finally, BRET assays were carried out as detailed below.
(§3) On the day of the experiment, each well was washed with 80 µL of Tyrode’s buffer (140 mM NaCl, 2.7 mM KCl, 1 mM CaCl2, 12 mM NaHCO3, 5.6 mM D-glucose, 0.5 mM MgCl2, 0.37 mM NaH2PO4, 25 mM Hepes (pH 7.4)). This was followed by incubation for 1 h in Tyrode’s buffer at room temperature. For the Gαq, β-arrestin-2, and PKC biosensors used in HEK293 cells, coelenterazine 400A (at a final concentration of 5 μM) was added 10 min before stimulation. Cells were then stimulated with increasing doses of the indicated ligand, and BRET signals were measured using a Tristar2 (Berthold) microplate reader 10 min later. For the PKC and Rho biosensors in VSMCs, and the Rho biosensor in ΔG12/13 cells, cells were similarly stimulated with ligands for 1 min, 1 min 30 s, and 3 min, respectively, before BRET measurement. […] BRET signals were then measured using a Synergy2 (BioTek) microplate reader. The applied filter set was 410/80 nm and 515/30 nm, designed to detect the light emissions of RlucII (Renilla luciferase) (donor) and rGFP (acceptor), respectively.

endogenous AT1R [2] = target: T1, endogenous AT1R; assay: PKC BRET sensor in rat primary VSMC with endogenous AT1R; type: cell-based; conditions: adenoviral PKC BRET sensor, 1 min stimulation, mean ± SEM of at least three to five independent experiments, read-out: EC50 PKC in VSMCs
Text: as §1, §2, §3

| Compound | half-life at 182 µM (Plasma stability) [h] | Change in left ventricular ejection fraction (ΔEF) / cardiac contractility (Sprague-Dawley rats) | Change in mean arterial blood pressure (ΔMABP) (Sprague-Dawley rats) | EC50 (endogenous AT1R [1]) [µM] | EC50 (endogenous AT1R [2]) [µM] |
| --- | --- | --- | --- | --- | --- |
| CC[C@H](C)[C@H](NC(=O)[C@H](Cc1ccc(O)cc1)NC(=O)[C@@H](NC(=O)[C@H](CCCNC(=N)N)NC(=O)[C@@H](N)CC(=O)O)C(C)C)C(=O)N[C@@H](Cc1c[nH]cn1)C(=O)N1CCC[C@H]1C(=O)N[C@@H](Cc1ccccc1Cl)C(=O)O [29a] | 0.533 ± 0.05 | – | – | – | – |
| CC[C@H](C)[C@H](NC(=O)[C@H](Cc1ccc(O)cc1)NC(=O)[C@@H](NC(=O)[C@H](CCCNC(=N)N)NC(=O)[C@@H](N)CC(=O)O)C(C)C)C(=O)N[C@@H](Cc1c[nH]cn1)C(=O)N1CCC[C@H]1C(=O)N[C@@H](Cc1ccccc1)C(=O)O [AngII, Angiotensin II] | – | significant decrease in cardiac ejection fraction of the left ventricle | rapid and sustained increase in arterial blood pressure | – | – |
| CCCc1nc(C(C)(C)O)c(C(=O)O)n1Cc1ccc(-c2ccccc2-c2nnn[nH]2)cc1 [Olmesartan] | – | did not alter the cardiovascular parameters measured | did not alter the cardiovascular parameters measured | – | – |
| CC[C@H](C)[C@H](NC(=O)[C@H](Cc1ccc(O)cc1)NC(=O)[C@@H](NC(=O)[C@H](CCCNC(=N)N)NC(=O)CNC)C(C)C)C(=O)N[C@@H](Cc1cnc[nH]1)C(=O)N1CCC[C@H]1C(=O)N[C@H](C)C(=O)O [TRV027, reference compound] | 16.1 ± 1.2 | – | – | > 10 | > 10 |
